In PubChem BioAssay (NCI):
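The compound was tested at five concentrations on cells cultured in 96-well plates, with a 48-hour exposure period. The concentration for 50% growth inhibition is given as GI50. TGI denotes the concentration required for complete inhibition of growth.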

Key:
Assay in all cases: NCI anticancer screen, dose series, 48 h
[1] = tested on: 786-0 renal
[2] = tested on: A498 renal
[3] = tested on: A549 NSCLC
[4] = tested on: ACHN renal
[5] = tested on: BT-549 breast
[6] = tested on: CAKI-1 renal
[7] = tested on: CCRF-CEM leukemia
[8] = tested on: COLO 205 colon
[9] = tested on: DU-145 prostate
[10] = tested on: EKVX NSCLC
[11] = tested on: HCC-2998 colon
[12] = tested on: HCT-116 colon
[13] = tested on: HCT-15 colon
[14] = tested on: HL-60(TB) leukemia
[15] = tested on: HOP-62 NSCLC
[16] = tested on: HOP-92 NSCLC
[17] = tested on: HS 578T breast
[18] = tested on: HT29 colon
[19] = tested on: IGROV1 ovarian
[20] = tested on: K-562 leukemia
[21] = tested on: KM12 colon
[22] = tested on: LOX IMVI melanoma
[23] = tested on: MALME-3M melanoma
[24] = tested on: MCF7 breast
[25] = tested on: MDA-MB-231 breast
[26] = tested on: MDA-MB-435
[27] = tested on: MOLT-4 leukemia
[28] = tested on: NCI-H226 lung
[29] = tested on: NCI-H23 lung
[30] = tested on: NCI-H460 lung
[31] = tested on: NCI-H522 lung
[32] = tested on: NCI/ADR-RES ovarian
[33] = tested on: OVCAR-3 ovarian
[34] = tested on: OVCAR-4 ovarian
[35] = tested on: OVCAR-5 ovarian
[36] = tested on: OVCAR-8 ovarian
[37] = tested on: PC-3 prostate
[38] = tested on: RPMI-8226 leukemia
[39] = tested on: RXF 393 renal
[40] = tested on: SF-268 CNS
[41] = tested on: SF-295 CNS
[42] = tested on: SF-539 CNS
[43] = tested on: SK-MEL-2 melanoma
[44] = tested on: SK-MEL-28 melanoma
[45] = tested on: SK-MEL-5 melanoma
[46] = tested on: SK-OV-3 ovarian
[47] = tested on: SN12C renal
[48] = tested on: SNB-19 CNS
[49] = tested on: SNB-75 CNS
[50] = tested on: SR leukemia
[51] = tested on: SW-620 colon
[52] = tested on: T-47D breast
[53] = tested on: TK-10 renal
[54] = tested on: U251 CNS
[55] = tested on: UACC-257 melanoma
[56] = tested on: UACC-62 melanoma
[57] = tested on: UO-31 renal

CS(=O)(=O)c1ccc(Oc2cc(F)cc(C#N)c2)c2c1[C@H](O)[C@H](F)[C@H]2F
GI50 [1]: > 100 µM | TGI [1]: > 100 µM | GI50 [2]: > 100 µM | TGI [2]: > 100 µM | GI50 [3]: > 100 µM | TGI [3]: > 100 µM | GI50 [4]: > 100 µM | TGI [4]: > 100 µM | GI50 [5]: > 100 µM | TGI [5]: > 100 µM | GI50 [6]: > 100 µM | TGI [6]: > 100 µM | GI50 [7]: > 100 µM | TGI [7]: > 100 µM | GI50 [8]: > 100 µM | TGI [8]: > 100 µM | GI50 [9]: > 100 µM | TGI [9]: > 100 µM | GI50 [10]: > 100 µM | TGI [10]: > 100 µM | GI50 [11]: > 100 µM | TGI [11]: > 100 µM | GI50 [12]: > 100 µM | TGI [12]: > 100 µM | GI50 [13]: > 100 µM | TGI [13]: > 100 µM | GI50 [14]: > 100 µM | TGI [14]: > 100 µM | GI50 [15]: > 100 µM | TGI [15]: > 100 µM | GI50 [16]: > 100 µM | TGI [16]: > 100 µM | GI50 [17]: > 100 µM | TGI [17]: > 100 µM | GI50 [18]: > 100 µM | TGI [18]: > 100 µM | GI50 [19]: > 100 µM | TGI [19]: > 100 µM | GI50 [20]: > 100 µM | TGI [20]: > 100 µM | GI50 [21]: > 100 µM | TGI [21]: > 100 µM | GI50 [22]: > 100 µM | TGI [22]: > 100 µM | GI50 [23]: > 100 µM | TGI [23]: > 100 µM | GI50 [24]: > 100 µM | TGI [24]: > 100 µM | GI50 [25]: > 100 µM | TGI [25]: > 100 µM | GI50 [26]: > 100 µM | TGI [26]: > 100 µM | GI50 [27]: > 100 µM | TGI [27]: > 100 µM | GI50 [28]: > 100 µM | TGI [28]: > 100 µM | GI50 [29]: > 100 µM | TGI [29]: > 100 µM | GI50 [30]: > 100 µM | TGI [30]: > 100 µM | GI50 [31]: > 100 µM | TGI [31]: > 100 µM | GI50 [32]: > 100 µM | TGI [32]: > 100 µM | GI50 [33]: > 100 µM | TGI [33]: > 100 µM | GI50 [34]: > 100 µM | TGI [34]: > 100 µM | GI50 [35]: > 100 µM | TGI [35]: > 100 µM | GI50 [36]: > 100 µM | TGI [36]: > 100 µM | GI50 [37]: > 100 µM | TGI [37]: > 100 µM | GI50 [38]: > 100 µM | TGI [38]: > 100 µM | GI50 [39]: 2.53 µM | TGI [39]: > 100 µM | GI50 [40]: > 100 µM | TGI [40]: > 100 µM | GI50 [41]: > 100 µM | TGI [41]: > 100 µM | GI50 [42]: > 100 µM | TGI [42]: > 100 µM | GI50 [43]: > 100 µM | TGI [43]: > 100 µM | GI50 [44]: > 100 µM | TGI [44]: > 100 µM | GI50 [45]: > 100 µM | TGI [45]: > 100 µM | GI50 [46]: > 100 µM | TGI [46]: > 100 µM | GI50 [47]: > 100 µM | TGI [47]: > 100 µM | GI50 [48]: > 100 µM | TGI [48]: > 100 µM | GI50 [49]: > 100 µM | TGI [49]: > 100 µM | GI50 [50]: > 100 µM | TGI [50]: > 100 µM | GI50 [51]: > 100 µM | TGI [51]: > 100 µM | GI50 [52]: > 100 µM | TGI [52]: > 100 µM | GI50 [53]: > 100 µM | TGI [53]: > 100 µM | GI50 [54]: > 100 µM | TGI [54]: > 100 µM | GI50 [55]: > 100 µM | TGI [55]: > 100 µM | GI50 [56]: > 100 µM | TGI [56]: > 100 µM | GI50 [57]: > 100 µM | TGI [57]: > 100 µM
